Data taken from article PMC10541411 (Nature Communications, 2023).
Ends that are not written are not given here. Me2 = dimethyl-lysine

Key:
[1] = molecular target: 53BP1^TT-CC (tandem Tudor domain of 53BP1, residues 1481-1603, E1549C/E1567C), disulfide-crosslinked homodimer (UniProt Q12888); assay: AUC; sedimentation velocity of 53BP1^TT-CC (20 uM) without DTT; 20 °C, 20 mM sodium phosphate pH 7.5, 50 mM NaCl
53BP1^TT WT = 53BP1^TT WT (Homo sapiens, UniProt Q12888); assay: 1H-15N HSQC NMR titration of 15N-labeled wild-type 53BP1TT; assay type: binding; parameters: The tandem Tudor domain of 53BP1 (53BP1^TT, residues 1481–1603) was purified as previously described; made in house; host or cells: E. coli (only for the SAXS sample); conditions: 15N-labeled WT 53BP1TT
Sequence of 53BP1^TT WT (Q12888 1481-1603): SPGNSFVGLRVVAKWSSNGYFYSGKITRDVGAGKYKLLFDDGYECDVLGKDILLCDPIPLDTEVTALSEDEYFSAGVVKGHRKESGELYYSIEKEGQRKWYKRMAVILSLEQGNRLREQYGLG
Description: (§1) All NMR data were collected at 25 °C on a 700 MHz Bruker Avance III spectrometer equipped with a cryoprobe. Data were processed and analyzed with NMRPipe[54] and NMRViewJ[55],[56].
(§2) To probe chemical shift perturbations, ^1H-^15N HSQC spectra were acquired on the following samples: 0.2 mM ^15N-labeled 53BP1^TT WT and 53BP1^TT-PN in 25 mM sodium phosphate, pH 7.0, 1.5 mM NaN3, 0.3 mM DSS, 90% H2O/10% D2O, free and incrementally titrated with various non-labeled inhibitors (UNC1078, UNC1118, UNC2170, UNC2991, UNC3474), as well as with H4KC20me2 and p53K382me2 peptides. Chemical shift perturbations (Δδ) were calculated using the Eq. (1):1 Δδ=(ΔN/5)^2+ΔH^2 where ΔN and ΔH are the corresponding differences in ^15N and ^1H chemical shifts between the bound and free forms of 53BP1.

53BP1^TT homodimer = molecular target: T1, 53BP1^TT homodimer (Homo sapiens, UniProt Q12888); assay: 2D longitudinal 1H-15N-heteronuclear ZZ-exchange NMR spectroscopy, protomer interconversion; assay type: binding; conditions: 25 °C, 1 mM 15N-labeled 53BP1TT and 9 mM UNC2170, signals of E1524
T1 construct: The tandem Tudor domain of 53BP1 (53BP1^TT, residues 1481–1603) was purified as previously described; made in house; host or cells: E. coli (only for the SAXS sample)
T1 sequence (Q12888 1481-1603): as above
Description: as §1
The protomer interconversion rates in the 53BP1^TT-UNC2970 complex were determined using 2D longitudinal ^1H-^15N-heteronuclear ZZ-exchange NMR spectroscopy[22]–[24]. For these experiments, a series of 11 spectra were acquired with mixing times of 0, 100, 200, 300, 400, 500, 600, 700, 800, 900, and 1000 ms in 25 mM sodium phosphate, pH 7.0, 100 mM NaCl, 1.5 mM NaN3, 0.3 mM DSS, 90% H2O/10% D2O. The interconversion rates were obtained from nonlinear fitting of auto peak and exchange peak intensities accounting for two-site exchange and ^15N R1 relaxation using the equations previously described for a two-state model.

[2] = molecular target: T2, 53BP1^TT-PN (E1549P/D1550N) (Homo sapiens, UniProt Q12888, D1550N/E1549P); assay: 1H-15N HSQC NMR titration of 15N-labeled 53BP1TT-PN; assay type: binding; conditions: up to fourfold molar excess
T2 construct: The tandem Tudor domain of 53BP1 (53BP1^TT, residues 1481–1603) was purified as previously described; made in house
T2 sequence (Q12888 1481-1603 E1549P/D1550N): as the sequence (Q12888 1481-1603) above, with E69P, D70N counted along it
Description: as §1, §2

53BP1^TT = molecular target: T3, 53BP1^TT (Homo sapiens, UniProt Q12888); parameters: method as in PMID 25590533; conditions: previously identified; read-out: dissociation constant (Kd); cited from earlier work
T3 construct: The tandem Tudor domain of 53BP1 (53BP1^TT, residues 1481–1603) was purified as previously described; made in house; host or cells: E. coli (only for the SAXS sample)
T3 sequence (Q12888 1481-1603): as the sequence (Q12888 1481-1603) above

[3] = molecular target: T4, 53BP1^TT (tandem Tudor domain of 53BP1, residues 1481–1603) (Homo sapiens, UniProt Q12888); assay: Isothermal titration calorimetry (ITC) of small molecules with 53BP1TT; assay type: binding; conditions: 25 °C, 50 mM Tris-HCl pH 7.5, 50 mM NaCl, one-site model; read-out: Kd (apparent, ITC)
T4 construct: The tandem Tudor domain of 53BP1 (53BP1^TT, residues 1481–1603) was purified as previously described; made in house; host or cells: E. coli (only for the SAXS sample)
T4 sequence (Q12888 1481-1603): as above
Description: The ITC measurements were performed at 25 °C using a MicroCal iTC200 calorimeter. 53BP1^TT and the small molecules (UNC2991, UNC3351, UNC3474) were in 50 mM Tris-HCl, pH 7.5, 50 mM NaCl. In a typical run, 53BP1^TT was in the reaction cell at a concentration of 150 to 160 μM while the small molecule, in the titration syringe at a concentration of 0.8–2 mM, was delivered as 2 μL injections every 3 min. The titrations were paired with control experiments for heat of dilution. The titration of 53BP1^TT with UNC1118 was performed using a MicroCal VP-ITC calorimeter. ITC data were fitted to a one-site model using a Levenberg-Marquardt non-linear regression algorithm programmed in the Origin 7.0 software.
Supplementary Figure 1 | Interaction of 53BP1TT with small molecules probed using isothermal titration calorimetry (ITC) and small-angle X-ray scattering (SAXS). a, ITC of the interaction of UNC2991, UNC3351 and UNC3474 with 53BP1TT. Raw titration data and integrated heat measurements are shown. Indicated apparent Kds with associated standard deviations were determined by nonlinear least-squares analysis.
1.33 and 2 mg/mL with an exposure time of 0.5 s, without and with 10-fold molar excess of UNC1118 or UNC3474. The error bars in the scattering curves were generated using PRIMUS in the data analysis software ATSAS 2.4.2 and represent mean ± standard deviation calculated from signal intensity scaling and merging for the three different 53BP1TT concentrations. The Guinier plots, dimensionless Kratky plots and pair distance distribution functions derived from the SAXS data are shown. Also shown are the crystal structures of 53BP1TT and 53BP1TT-UNC3474 overlaid to the corresponding SAXS-based ab initio molecular envelopes generated using GASBOR 2.3i. c, Interaction of UNC1118 with 53BP1TT characterized using ITC (left) and NMR spectroscopy (right).
For the ITC, raw titration data and integrated heat measurements are shown. The indicated Kd with associated standard deviation was determined by nonlinear least-squares analysis.
(1 picture or pasted object on this page, not shown here)

interaction with 53BP1TT-PN (1H-15N HSQC titration) [2] | Kd [3] [µM] | Compound | changes in signal positions in the 1H-15N HSQC spectrum of 53BP1TT upon titration (53BP1^TT WT) | other results
did not interact |  | CC(C)(C)NCCCNC(=O)c1cccc(Br)c1 [UNC2170] | slow exchange on the chemical shift time scale | interconversion rate kAB between the two protomers in the 53BP1TT dimer (53BP1^TT homodimer): 1.7 s⁻¹; interconversion rate kBA between the two protomers in the 53BP1TT dimer (53BP1^TT homodimer): 1.2 s⁻¹; Kd (53BP1^TT): 22 ± 2.5 µM
did not interact | 3.9 ± 0.4 | CC(C)(C)NCCCNC(=O)c1cccc(I)c1 [UNC2991] | slow exchange on the chemical shift time scale | 
 | 6.8 ± 0.4 | CC(C)(C)NCCCNC(=O)c1cccc(C(F)(F)F)c1 [UNC3351] | slow exchange on the chemical shift time scale | 

Second part, the compound before the results:

Compound | interaction with 53BP1TT-PN (1H-15N HSQC titration) [2] | Kd [3] [µM] | changes in signal positions in the 1H-15N HSQC spectrum of 53BP1TT upon titration (53BP1^TT WT) | other results
53BP1^TT-CC (tandem Tudor domain of 53BP1, residues 1481-1603, E1549C/E1567C), disulfide-crosslinked homodimer (from UniProt Q12888 1481-1603) (domain or fragment) |  |  |  | stoichiometry N [1]: 2
H4KC20me2: dimethylated histone H4 peptide (residues 12–25) with chemically installed dimethyl-lysine analog (KGGAKRHRCVLRDN; dimethyl-lysine analog at position 20 (KC20me2), installed chemically) [reference compound] | bound |  |  | 
p53K382me2: dimethylated p53 peptide (residues 377–386) purchased from GenScript (TSRHKK(Me2)LMFK) [reference compound] | bound |  |  | 
